Where “and” joins values, the source holds several entries; their conditions need not be identical. Equal entries are not always repeated. Toxic doses and inconclusive results are not listed. Where a SMILES comes first, the peptide text is derived from it. [ ]: non-standard residue; d: D form. The star is where a group is joined. Cbz = O=C(OCc1ccccc1)*; Nva = CCC[CH](N)C(=O)O
Test system: B6C3F1 mice, B16 melanoma ip, median survival T/C
Experiment: NCI In Vivo Anticancer Drug Screen. Data for tumor model B16 Melanoma (intraperitoneal) in B6C3F1 mice
Conditions: endpoint: median survival time, higher = longer survival
Procedure, shortened: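 Tumor-bearing mice received test compound; a separate group got vehicle only. Survival was then compared, with results reported as treated over control.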

[1] = dose: 1.56 mg/kg/injection, schedule: Q01DX009 (ip), vehicle: saline
[2] = dose: 3.12 mg/kg/injection, schedule: Q01DX009 (ip), vehicle: saline
[3] = dose: 6.25 mg/kg/injection, schedule: Q01DX009 (ip), vehicle: saline
[4] = dose: 12.5 mg/kg/injection, schedule: Q01DX009 (ip), vehicle: saline
[5] = dose: 25.0 mg/kg/injection, schedule: Q01DX009 (ip), vehicle: saline
[6] = dose: 1.56 mg/kg/injection, schedule: Q01DX009 (ip), vehicle: saline with Tween-80
[7] = dose: 3.12 mg/kg/injection, schedule: Q01DX009 (ip), vehicle: saline with Tween-80
[8] = dose: 6.25 mg/kg/injection, schedule: Q01DX009 (ip), vehicle: saline with Tween-80
[9] = dose: 12.5 mg/kg/injection, schedule: Q01DX009 (ip), vehicle: saline with Tween-80
[10] = dose: 25.0 mg/kg/injection, schedule: Q01DX009 (ip), vehicle: saline with Tween-80
[11] = dose: 50.0 mg/kg/injection, schedule: Q01DX009 (ip), vehicle: saline with Tween-80
[12] = dose: 100.0 mg/kg/injection, schedule: Q01DX009 (ip), vehicle: saline with Tween-80
[13] = dose: 200.0 mg/kg/injection, schedule: Q01DX009 (ip), vehicle: saline with Tween-80

Q: Which results are given for COc1cccc2c1C(=O)c1c(O)c3c(c(O)c1C2=O)C[C@@](O)(/C(C)=N\O)C[C@@H]3OC1CC(N)C(O)C(C)O1 (stereo partly specified)?
A: T/C (dose: 1.5 mg/kg/injection, schedule: Q01DX009 (ip), vehicle: saline): 160 % of control; T/C (dose: 3.13 mg/kg/injection, schedule: Q01DX009 (ip), vehicle: water): 150 % of control; T/C (dose: 6.0 mg/kg/injection, schedule: Q01DX009 (ip), vehicle: saline): 164 % of control; T/C (dose: 6.25 mg/kg/injection, schedule: Q01DX009 (ip), vehicle: water): 182 % of control; T/C (dose: 12.0 mg/kg/injection, schedule: Q01DX009 (ip), vehicle: saline): 217 % of control; T/C (dose: 12.5 mg/kg/injection, schedule: Q01DX009 (ip), vehicle: water): 178 % of control; T/C (dose: 24.0 mg/kg/injection, schedule: Q01DX009 (ip), vehicle: saline): 204 % of control

Q: CC[N](CC)[Ge]([CH2]C)[CH2]C.CC[N](CC)[Ge]([CH2]C)[CH2]C was tested. Which T/C [1] did it give?
A: 106 % of control

Q: And the T/C [2]?
A: 103 % of control

Q: And the T/C [3]?
A: 103 % of control

Q: What about the T/C [4] of the same compound?
A: 107 % of control

Q: And the T/C [5]?
A: 108 % of control

Q: With COC1=CCC23C(=O)C=CC(=O)C2(C1)C(=O)c1ccccc1C3=O (stereo unspecified) as the compound, how does the T/C [6] read?
A: 99 % of control

Q: What about the T/C [7] of the same compound?
A: 96 % of control

Q: What about the T/C [8] of the same compound?
A: 93 % of control

Q: What about the T/C [9] of the same compound?
A: 94 % of control

Q: For Cn1c2nc(=O)n(-c3ccccc3)c(=O)c-2nc2c1CCCC2, which T/C (dose: 6.25 mg/kg/injection, schedule: Q01DX008 (ip), vehicle: saline with Tween-80) is on record?
A: 96 % of control

Q: And the T/C [8]?
A: 119 % of control

Q: What about the T/C (dose: 12.5 mg/kg/injection, schedule: Q01DX008 (ip), vehicle: saline with Tween-80) of the same compound?
A: 104 % of control

Q: And the T/C [9]?
A: 107 % of control

Q: What about the T/C (dose: 25.0 mg/kg/injection, schedule: Q01DX008 (ip), vehicle: saline with Tween-80) of the same compound?
A: 101 % of control

Q: What about the T/C [10] of the same compound?
A: 107 % of control

Q: And the T/C (dose: 50.0 mg/kg/injection, schedule: Q01DX008 (ip), vehicle: saline with Tween-80)?
A: 98 % of control

Q: And the T/C [11]?
A: 101 % of control

Q: What about the T/C [12] of the same compound?
A: 101 % of control and 102 % of control

Q: And the T/C [13]?
A: 96 % of control and 97 % of control

Q: Which T/C (dose: 0.78 mg/kg/injection, schedule: Q01DX009 (ip), vehicle: Klucel (hydroxypropylcellulose) (HPC)) does the source give for COC(=O)C1OC(OC2=C(c3ccc(OC)cc3)C(=O)C(OC3OC(C(=O)OC)C(OC(C)=O)C(OC(C)=O)C3OC(C)=O)=C(c3ccc(OC)cc3)C2=O)C(OC(C)=O)C(OC(C)=O)C1OC(C)=O (stereo unspecified) here?
A: 109 % of control

Q: What about the T/C (dose: 1.56 mg/kg/injection, schedule: Q01DX009 (ip), vehicle: Klucel (hydroxypropylcellulose) (HPC)) of the same compound?
A: 109 % of control

Q: And the T/C (dose: 3.13 mg/kg/injection, schedule: Q01DX009 (ip), vehicle: Klucel (hydroxypropylcellulose) (HPC))?
A: 99 % of control

Q: What about the T/C (dose: 6.25 mg/kg/injection, schedule: Q01DX009 (ip), vehicle: Klucel (hydroxypropylcellulose) (HPC)) of the same compound?
A: 102 % of control

Q: What about the T/C (dose: 12.5 mg/kg/injection, schedule: Q01DX009 (ip), vehicle: Klucel (hydroxypropylcellulose) (HPC)) of the same compound?
A: 93 % of control

Q: Which T/C [11] does the source give for Nc1nc(N)c(N=O)c(Nc2ccc(I)cc2)n1 here?
A: 115 % of control

Q: And the T/C [12]?
A: 110 % of control

Q: What about the T/C [13] of the same compound?
A: 98 % of control

Q: Which T/C (dose: 1.5 mg/kg/injection, schedule: Q01DX009 (ip), vehicle: saline with Tween-80) does the source give for O=C1NC(=O)C2(CCc3ccc(N(CCCl)CCCl)cc32)N1 (stereo unspecified) here?
A: 122 % of control

Q: What about the T/C (dose: 6.25 mg/kg/injection, schedule: Q01DX009 (oral), vehicle: saline with Tween-80) of the same compound?
A: 100 % of control

Q: What about the T/C (dose: 12.0 mg/kg/injection, schedule: Q01DX009 (ip), vehicle: saline with Tween-80) of the same compound?
A: 157 % of control

Q: What about the T/C (dose: 12.5 mg/kg/injection, schedule: Q01DX009 (oral), vehicle: saline with Tween-80) of the same compound?
A: 115 % of control and 108 % of control

Q: And the T/C (dose: 24.0 mg/kg/injection, schedule: Q01DX009 (ip), vehicle: saline with Tween-80)?
A: 202 % of control

Q: And the T/C (dose: 25.0 mg/kg/injection, schedule: Q01DX009 (oral), vehicle: saline with Tween-80)?
A: 109 % of control and 105 % of control

Q: What about the T/C (dose: 48.0 mg/kg/injection, schedule: Q01DX009 (ip), vehicle: saline with Tween-80) of the same compound?
A: 236 % of control

Q: And the T/C (dose: 50.0 mg/kg/injection, schedule: Q01DX009 (oral), vehicle: saline with Tween-80)?
A: 121 % of control and 104 % of control

Q: What about the T/C (dose: 100.0 mg/kg/injection, schedule: Q01DX009 (oral), vehicle: saline with Tween-80) of the same compound?
A: 109 % of control and 117 % of control

Q: And the T/C (dose: 200.0 mg/kg/injection, schedule: Q01DX009 (oral), vehicle: saline with Tween-80)?
A: 117 % of control and 101 % of control

Q: What about the T/C (dose: 400.0 mg/kg/injection, schedule: Q01DX009 (oral), vehicle: saline with Tween-80) of the same compound?
A: 109 % of control

Q: How did the T/C (dose: 100.0 mg/kg/injection, schedule: Q01DX009 (ip), vehicle: Klucel (hydroxypropylcellulose) (HPC)) turn out when CCCC(NC(=O)OCc1ccccc1)C(=O)NC(Cc1ccccc1)C(N)=O (stereo unspecified) (Cbz-[Nva]-Phe-NH2; configuration not given here) was run?
A: 101 % of control

Q: What about the T/C (dose: 200.0 mg/kg/injection, schedule: Q01DX009 (ip), vehicle: Klucel (hydroxypropylcellulose) (HPC)) of the same compound?
A: 91 % of control

Q: And the T/C (dose: 400.0 mg/kg/injection, schedule: Q01DX009 (ip), vehicle: Klucel (hydroxypropylcellulose) (HPC))?
A: 89 % of control

Q: For S=C(S)N1CCCNCC1 (tested in a mixture with another compound), which T/C [9] is on record?
A: 107 % of control

Q: What about the T/C [10] of the same compound?
A: 100 % of control

Q: And the T/C [11]?
A: 92 % of control

Q: Which T/C [6] does the source give for O=C(Nc1ccc(C2=NCCN2)cc1)c1ccc(C(=O)Nc2ccc(C3=NCCN3)cc2)c(Cl)c1 here?
A: 105 % of control

Q: And the T/C [1]?
A: 115 % of control

Q: What about the T/C [7] of the same compound?
A: 98 % of control

Q: And the T/C [2]?
A: 89 % of control

Q: And the T/C [8]?
A: 100 % of control

Q: What about the T/C [3] of the same compound?
A: 100 % of control

Q: And the T/C [9]?
A: 93 % of control

Q: And the T/C [4]?
A: 93 % of control

Q: And the T/C [10]?
A: 110 % of control

Q: And the T/C [5]?
A: 94 % of control

Q: What about the T/C [11] of the same compound?
A: 110 % of control

Q: What about the T/C (dose: 50.0 mg/kg/injection, schedule: Q01DX009 (ip), vehicle: saline) of the same compound?
A: 99 % of control

Q: How did the T/C [2] turn out when O=c1c(O)c(O)c1=O.[NH2-].[NH2-].[NH2-].[NH2-].[NH2-].[Ru+5] was run?
A: 110 % of control

Q: And the T/C (dose: 3.75 mg/kg/injection, schedule: Q01DX009 (ip), vehicle: saline)?
A: 104 % of control

Q: And the T/C [3]?
A: 120 % of control

Q: And the T/C (dose: 10.42 mg/kg/injection, schedule: Q01DX009 (ip), vehicle: saline)?
A: 122 % of control

Q: And the T/C [5]?
A: 87 % of control

Q: With CC(=O)Nc1ccc(N=Nc2c(O)c(S(=O)(=O)O)cc3cc(S(=O)(=O)O)ccc23)cc1 as the compound, how does the T/C [11] read?
A: 111 % of control

Q: What about the T/C [12] of the same compound?
A: 100 % of control

Q: And the T/C [13]?
A: 98 % of control

Reference: PubChem BioAssay AID200 (DTP/NCI, 2004)
